Reference: PMC11229374, “Unlocking the potential of protein-derived peptides to target G-quadruplex DNA: from recognition to anticancer activity” (Nucleic Acids Research, 2024)
*: point of attachment. FITC = O=C1OC2(c3ccc(O)cc3Oc3cc(O)ccc32)c2ccc(NC(=S)*)cc21; AEEA = NCCOCCOCC(=O)O

What was measured:
c-KIT2 G4 [1] = experiment: CD melting, thermal stabilization of c-KIT2 G4; type: binding, human; conditions: for ΔT1/2 of c-KIT2 G4: CD melting at 264 nm, 2 mol equiv of peptide with respect to G4, 2 μM DNA, 5 mM KH2PO4/K2HPO4 pH 7.0, 20 mM KCl, average of three, T1/2 c-KIT2 alone 59.5°C; for ΔΔT1/2, change in c-KIT2 G4-stabilizing properties with respect to Myb^397–415: CD melting, 2 mol equiv peptide, difference to Myb^397–415
Description: The buffer baseline was subtracted from each spectrum.

c-KIT2 G4 [2] = experiment: Microscale thermophoresis (MST) binding to c-KIT2 G4; parameters: species or system human; conditions: 25°C, 20 nM FITC-labelled peptide, DNA serial dilution, 5 mM KH2PO4/K2HPO4 pH 7.0, 20 mM KCl, 0.1% Tween, 5% DMSO
Procedure: MST experiments were conducted using a Monolith NT.115 instrument (NanoTemper Technologies, Munich, Germany) at 25°C with medium MST power settings. […] DNA samples were also diluted using the same buffer supplemented with 0.1% Tween. During MST experiments, the concentration of the labelled peptide was kept constant at 20 nM, while a serial dilution of the investigated DNA molecules (ranging from 10 or 20 μM) was prepared and mixed with the peptide solution in a 1:1 volume ratio. All the samples, with a final concentration of 5% DMSO, were loaded into standard capillaries (NanoTemper Technologies) for MST measurements. Data analysis was carried out using the MO.Affinity Analysis (v2.3) software provided with the instrument.

c-KIT2 G4 [3] = experiment: Isothermal titration calorimetry (ITC) with c-KIT2 G4; type: binding, human; conditions: ITC at 25°C, triplicate; for Ka: c-KIT2 G4 16–20 μM, peptide 280–400 μM, 5 mM KH2PO4/K2HPO4, 20 mM KCl, pH 7.0; for Kd: c-KIT2 G4, Kd = 1/Ka
Procedure: ITC experiments were conducted at 25°C using a nano-ITC Low Volume calorimeter (TA instruments, Lindon, UT, USA). DNA and peptide solutions were prepared using the same batch of buffer (5 mM KH2PO4/K2HPO4 buffer containing 20 mM KCl, pH 7.0) to prevent differences in buffer composition and pH. Each titration consisted of 25 injections of a 2 μl peptide solution (280–400 μM) sequentially injected using a computer-controlled 50 μl syringe, into the calorimetric vessel (190 μl) containing the oligonucleotide (16–20 μM). A spacing of 300 s between each injection was applied to allow the system to reach the equilibrium. The heat generated by peptide dilution was assessed in a control experiment by injecting the peptide solution into the buffer (Supplementary Figure S30). All measurements were performed in triplicate. Subsequently, the interaction heat for each injection was calculated considering the correction for the heat of peptide dilution. The corrected heat values were plotted as a function of the molar ratio to provide binding isotherms. The isotherms were fitted with a multiple-sites binding model using the NanoAnalyze software (TA instruments) provided with the instrument. This analysis provided the equilibrium binding constant (Ka), binding enthalpy (ΔH°), and stoichiometry of interaction (n). The equilibrium dissociation constant (Kd), Gibbs free-energy change and entropy change were determined using the following relationships: Kd = 1/Ka, ΔG° = -RT ln Ka (R = 8.314 J mol^−1 K^−1, T = 298.15 K), and TΔS° = ΔH° – ΔG°.

U2OS cells = experiment: Viability assay (crystal violet), U2OS; type: cell-based; conditions: for Impact on cancer cell viability, peptides in native form: unconjugated peptides
Procedure: U2OS, HCT116 and MDA-MB-231 cells were purchased from the ATCC and grown in Dulbecco modified Eagle's medium (DMEM; EuroClone, Milan, Italy; ECM0728L) supplemented with 10% Fetal Bovine Serum (FBS, ThermoFisher Scientific/Gibco, Waltham, MA, USA; 10270-106), 2 mM L-glutamine and antibiotics in a humidified incubator at 37°C with 5% CO2 and atmospheric O2 concentration. Cell lines were authenticated and tested to be mycoplasma-free.
U2OS, HCT116, and MDA-MB-231 cells were seeded in 24-well plates at a density of 1 × 10^4, 20 × 10^3 and 12 × 10^3 for each well, respectively. After 24 h, cells were treated with the indicated peptides and incubated at 37°C for additional 72 h. Upon treatment completion, cell medium was removed, the wells were washed twice in phosphate-buffered saline (PBS) and fixed with 4% formaldehyde for 15 min at room temperature (RT). After washing, 500 μl of crystal violet staining solution (Sigma-Aldrich, St. Louis, MO, USA) was added to each well and incubated for 30 min at RT. Finally, the plates were rinsed twice with water, air-dried and cell pellets were dissolved in 400 μl of a 10% aqueous solution of acetic acid. In total, 200 μl of each sample was transferred to a 96-well plate, and the optical density was measured at 570 nm (OD570) with an ELISA reader (Thermo Scientific, Waltham, MA, USA). The average absorbance in each condition was used to calculate the viability expressed as a percentage of treated vs untreated conditions (CTR).

FITC-Myb397-415 [4] = molecular target: T1, FITC-Myb397-415 (UniProt P11938); experiment: MST; conditions: 2'-F-ANA-guanosine at bold G; positions lost in the text; 5 mM KH2PO4/K2HPO4 pH 7.0, 20 mM KCl (LiCl for c-MYC stock), 25 C; MST with 0.1% Tween and 5% DMSO, 20 nM FITC-peptide
T1 sequence: NHTGNSIRHRFRVYLSKRL

FITC-Myb397-415 [5] = molecular target: T2, FITC-Myb397-415 (UniProt P11938 397-415); experiment: microscale thermophoresis; 5 mM KH2PO4/K2HPO4, 20 mM KCl (c-MYC stock annealed in LiCl), pH 7.0; MST 25 C with 0.1% Tween, 5% DMSO, 20 nM labelled peptide, DNA titrated (stocks from 10 or 20 uM, mixed 1:1); ITC 25 C; conditions: tags: N-terminal FITC-O2Oc, C-terminal NH2
T2 chain: {FITC-AEEA}-NHTGNSIRHRFRVYLSKRL-NH2

Myb397-415 = molecular target: T3, Myb397-415 (UniProt P11938 397-415); experiment: isothermal titration calorimetry; 5 mM KH2PO4/K2HPO4, 20 mM KCl (c-MYC stock annealed in LiCl), pH 7.0; MST 25 C with 0.1% Tween, 5% DMSO, 20 nM labelled peptide, DNA titrated (stocks from 10 or 20 uM, mixed 1:1); ITC 25 C; conditions: tags: N-acetyl; C-terminal NH2; chain copies: 3; parallel G4
T3 chain: NHTGNSIRHRFRVYLSKRL

FITC-Myb397-415 [6] = molecular target: T2, FITC-Myb397-415; experiment: MST; 20 mM K+; 5 mM KH2PO4/K2HPO4 pH 7.0, 20 mM KCl (LiCl for c-MYC stock), 25 C; MST with 0.1% Tween and 5% DMSO, 20 nM FITC-peptide; conditions: hybrid G4

For NATGNSIRHRFRVYLSKRL [Myb^A398], the “ΔT1/2 of c-KIT2 G4” value (c-KIT2 G4 [1]) was 19.8 (±0.2) °C.

With NHTGNSIRHRFRVYASKRL [Myb^A411] the “ΔT1/2 of c-KIT2 G4” value (c-KIT2 G4 [1]) was 19.5 (±0.4) °C.

AHTGNSIRHRFRVYLSKRL [Myb^A397] was tested, and the “ΔT1/2 of c-KIT2 G4” value (c-KIT2 G4 [1]) was 18.0 (±0.2) °C.

In the case of NHTGNAIRHRFRVYLSKRL [Myb^A402], the “ΔT1/2 of c-KIT2 G4” value (c-KIT2 G4 [1]) is reported as 18.5 (±0.2) °C.

Ac-NHTGNSIRHRFRVYLAKRL-NH2 [Myb^A412] was tested, and the “ΔT1/2 of c-KIT2 G4” value (c-KIT2 G4 [1]) was 23.3 (±0.2) °C, the “ΔΔT1/2, change in c-KIT2 G4-stabilizing properties with respect to Myb^397–415” value (c-KIT2 G4 [1]) was 6.0 °C and the Kd (c-KIT2 G4 [2]) was ~130 nM. The Ka (c-KIT2 G4 [3]) was 5.3 (±0.8) ×10^6 M^−1, the Kd (c-KIT2 G4 [3]) was 187 nM and the “Impact on cancer cell viability, peptides in native form” value (U2OS cells; 72 h treatment) was “unable to significantly impact cancer cells viability”.

With NHTGNSIRHRFRAYLSKRL [Myb^A409] the “ΔT1/2 of c-KIT2 G4” value (c-KIT2 G4 [1]) was 14.7 (±0.6) °C.

“RRWWRRWRR-GG-NHTGNSIRHRFRVYLSKRL [R6W3-Myb^397–415]” was tested, and the IC50 (U2OS cells; 72 h treatment, read-out: IC50 (concentration of drug capable of killing 50% of cells)) was ~10000 nM.

NHTGNSIRHRFAVYLSKRL [Myb^A408] was tested, and the “ΔT1/2 of c-KIT2 G4” value (c-KIT2 G4 [1]) was 14.0 (±0.6) °C.

In the case of “RRRRRRRW-GG-NHTGNSIRHRFRVYLAKRL [R7W-Myb^A412, Myb^A412 N-terminally conjugated to the cell-penetrating peptide R7W via a glycine–glycine spacer]”, the “Inhibition of tumour cell growth compared with the other R7W-conjugated peptides” value (U2OS cells; 72 h, at the 5 μM concentration) is reported as “slightly more effective than the others” and the “Inhibition of tumour cell growth, R7W-conjugated peptides” value (U2OS cells; 72 h treatment) is reported as “essentially to the same extent as R7W-Myb^397–415”.

In the case of NHTGNSIRHRFRVALSKRL [Myb^A410], the “ΔT1/2 of c-KIT2 G4” value (c-KIT2 G4 [1]) is reported as 13.6 (±0.2) °C.

In the case of TAGGGTTAGGGTTAGGGTTAGGG [HT-FANA], the Kd (FITC-Myb397-415 [4]) is reported as 140 nM.

With NHTGNSIRHRFRVYLSKAL [Myb^A414] the “ΔT1/2 of c-KIT2 G4” value (c-KIT2 G4 [1]) was 10.7 (±0.6) °C.

For NHTGNSIRARFRVYLSKRL [Myb^A405], the “ΔT1/2 of c-KIT2 G4” value (c-KIT2 G4 [1]) was 16.0 (±0.2) °C.

With Ac-NHTANSIRHRFRVYLSKRL-NH2 [Myb^A400] the “ΔT1/2 of c-KIT2 G4” value (c-KIT2 G4 [1]) was 21.1 (±0.4) °C, the “ΔΔT1/2, change in c-KIT2 G4-stabilizing properties with respect to Myb^397–415” value (c-KIT2 G4 [1]) was 3.8 °C and the Kd (c-KIT2 G4 [2]) was ~170 nM. The Ka (c-KIT2 G4 [3]) was 7.3 (±1.3) ×10^6 M^−1, the Kd (c-KIT2 G4 [3]) was 137 nM and the “Impact on cancer cell viability, peptides in native form” value (U2OS cells; 72 h treatment) was “unable to significantly impact cancer cells viability”.

NHTGNSIRHRARVYLSKRL [Myb^A407] was tested, and the “ΔT1/2 of c-KIT2 G4” value (c-KIT2 G4 [1]) was 17.8 (±0.2) °C.

In the case of NHTGNSIRHRFRVYLSARL [Myb^A413], the “ΔT1/2 of c-KIT2 G4” value (c-KIT2 G4 [1]) is reported as 10.7 (±0.6) °C.

For NHTGNSIRHAFRVYLSKRL [Myb^A406], the “ΔT1/2 of c-KIT2 G4” value (c-KIT2 G4 [1]) was 12.1 (±0.3) °C.

For NHTGNSARHRFRVYLSKRL [Myb^A403], the “ΔT1/2 of c-KIT2 G4” value (c-KIT2 G4 [1]) was 17.7 (±0.2) °C.

In the case of NHTGNSIAHRFRVYLSKRL [Myb^A404], the “ΔT1/2 of c-KIT2 G4” value (c-KIT2 G4 [1]) is reported as 16.6 (±0.2) °C.

In the case of NHTGNSIRHRFRVYLSKRA [Myb^A415], the “ΔT1/2 of c-KIT2 G4” value (c-KIT2 G4 [1]) is reported as 17.8 (±0.5) °C.

With NHTGASIRHRFRVYLSKRL [Myb^A401] the “ΔT1/2 of c-KIT2 G4” value (c-KIT2 G4 [1]) was 19.7 (±0.2) °C.

In the case of NHAGNSIRHRFRVYLSKRL [Myb^A399], the “ΔT1/2 of c-KIT2 G4” value (c-KIT2 G4 [1]) is reported as 18.5 (±0.2) °C.

GGGCGCGGGAGGAATTGGGCGGG (structured_DNA) [BCL-2] gave a Kd (FITC-Myb397-415 [5]; hybrid G4) of 280 ± 42 nM.

B1: ds12 (dsDNA)
DNA 1: CGCGAATTCGCG
DNA 2: CGCGAATTCGCG
B1: no binding (FITC-Myb397-415 [5]; blunt, self-complementary).

In the case of GGAGAAGGAGGAGGTGGAGGAGGAGGG (structured_DNA) [HER2], the Kd (FITC-Myb397-415 [5]; parallel G4) is reported as 130 ± 20 nM and the Kd (Myb397-415) is reported as 100 ± 10 nM.

For TTAGGGTTAGGGTTAGGGTTAGGGTT (structured_DNA) [HT2], the Kd (FITC-Myb397-415 [6]) was 1180 ± 90 nM and the Kd (FITC-Myb397-415 [5]; hybrid G4) was 1180 ± 90 nM.

Molecule TGAGGGTGGGTAGGGTGGGTAA (structured_DNA) [c-MYC] has a Kd (FITC-Myb397-415 [5]; parallel G4) of 430 ± 100 nM.

TCGGGTTGCGGGCGCAGGGCACGGGCG (structured_DNA) [HRAS1]: no binding (FITC-Myb397-415 [5]; antiparallel G4).

AGGGAGGGCGCTGGGAGGAGGG (structured_DNA) [c-KIT1] showed a Kd (FITC-Myb397-415 [5]; parallel G4) of 340 ± 44 nM.

GGGTACCCGGGTGAGGTGCGGGGT (structured_DNA) [VEGFR-17T]: no binding (FITC-Myb397-415 [5]; hybrid (mixed parallel/antiparallel) G4).

In the case of TTGGGTTAGGGTTAGGGTTAGGGA (structured_DNA) [HT1], the Kd (FITC-Myb397-415 [6]) is reported as 900 ± 140 nM and the Kd (FITC-Myb397-415 [5]; hybrid G4) is reported as 900 ± 140 nM.

GGGTTTGGGTTTTGGGAGGG (structured_DNA) [LWDLN1]: no binding (FITC-Myb397-415 [5]; antiparallel G4).
